Assay results reported in patent publication US10828315B2 (Madrigal Pharmaceuticals, Inc., priority 2013, dated 2020).
Like-named read-outs stand apart in the source and are kept apart here.

Experiments:
[1] = Retention of docetaxel SDC-TRAPs in plasma and tumor (Example 53); assay type: in vivo, Female SCID Mouse (H1975); settings: dosed SDC-TRAP-0426 25 mg/10 mL/kg IV, DRD, Table 4
[2] = mouse, plasma, 1 h
[3] = female, SCID, mouse, in vivo

% Remaining (1 h) ([2]; 10 µM)	SMILES	also measured
91.1%	CC(C)c1cc(-c2nnc(O)n2-c2ccc(CC3CCN(CC(=O)Nc4cccc5c4CN(C4CCC(=O)NC4=O)C5=O)CC3)cc2)c(O)cc1O (centres unmarked) [SDC-TRAP-0116, 2-(4-(4-(3-(2,4-dihydroxy-5-isopropylphenyl)-5-hydroxy-4H-1,2,4-triazol-4-yl)benzyl)piperidin-1-yl)-N-(2-(2,6-dioxopiperidin-3-yl)-1-oxoisoindolin-4-yl) acetamide]	Tumor Conc. ([3]; 1 h): 13.7 nmol/g of tissue; Tumor Conc. ([3]; 6 h): 6.09 nmol/g of tissue; Tumor Conc. ([3]; 24 h): 2.78 nmol/g of tissue; Tumor Conc. ([3]; 48 h): 1.46 nmol/g of tissue; Tumor Conc. ([3]; […]): 17.7 nmol/g of tissue
94.1%	CC(C)c1cc(-c2nnc(O)n2-c2ccc(CN3CCN(c4cnc(C(=O)Nc5cccc6c5CN(C5CCC(=O)NC5=O)C6=O)cn4)CC3)c(F)c2)c(O)cc1O (centres unmarked) [SDC-TRAP-0170, 5-(4-(4-(3-(2,4-dihydroxy-5-isopropylphenyl)-5-hydroxy-4H-1,2,4-triazol-4-yl)-2-fluorobenzyl)piperazin-1-yl)-N-(2-(2,6-dioxopiperidin-3-yl)-1-oxoisoindolin-4-yl)pyrazine-2-carboxamide]	–
89.1%	CC(C)c1cc(-c2nnc(O)n2-c2ccc(CN3CCN(C(=O)COC(=O)Nc4cccc5c4CN(C4CCC(=O)NC4=O)C5=O)CC3)cc2)c(O)cc1O (centres unmarked) [SDC-TRAP-0121, 2-(4-(4-(3-(2,4-dihydroxy-5-isopropylphenyl)-5-hydroxy-4H-1,2,4-triazol-4-yl)benzyl)piperazin-1-yl)-2-oxoethyl(2-(2,6-dioxopiperidin-3-yl)-1-oxoisoindolin-4-yl)carbamate]	–
87.3%	CC(C)c1cc(-c2nnc(O)n2-c2ccc(CC(=O)N(C)CCOC(=O)Nc3cccc4c3CN(C3CCC(=O)NC3=O)C4=O)cc2)c(O)cc1O (centres unmarked) [SDC-TRAP-0127, 2-(2-(4-(3-(2,4-dihydroxy-5-isopropylphenyl)-5-hydroxy-4H-1,2,4-triazol-4-yl)phenyl)-N-methylacetamido)ethyl(2-(2,6-dioxopiperidin-3-yl)-1-oxoisoindolin-4-yl)carbamate]	–
90.3%	CC(C)c1cc(-c2nnc(O)n2-c2ccc(N3CCN(C(=O)c4ccc(COC(=O)Nc5cccc6c5CN(C5CCC(=O)NC5=O)C6=O)cc4)CC3)cc2)c(O)cc1O (centres unmarked) [SDC-TRAP-0156, 4-(4-(4-(3-(2,4-Dihydroxy-5-isopropylphenyl)-5-hydroxy-4H-1,2,4-triazol-4-yl)phenyl)piperazine-1-carbonyl)benzyl (2-(2,6-dioxopiperidin-3-yl)-1-oxoisoindolin-4-yl)carbamate]	–
95.6%	CCNC(=O)c1nnc(-c2cc(C(C)C)c(O)cc2O)n1-c1ccc(CN2CCC(C(=O)N3CCC(OC(=O)Nc4cccc5c4CN(C4CCC(=O)NC4=O)C5=O)CC3)CC2)cc1 (centres unmarked) [SDC-TRAP-0123, 1-(1-(4-(3-(2,4-Dihydroxy-5-isopropylphenyl)-5-(ethylcarbamoyl)-4H-1,2,4-triazol-4-yl)benzyl)piperidine-4-carbonyl)piperidin-4-yl (2-(2,6-dioxopiperidin-3-yl)-1-oxoisoindolin-4-yl)carbamate]	–
81.4%	CC(C)c1cc(-c2nnc(O)n2-c2ccc(CN3CCN(C(=O)c4ccc(COC(=O)Nc5cccc6c5CN(C5CCC(=O)NC5=O)C6=O)cc4)CC3)c(F)c2)c(O)cc1O (centres unmarked) [SDC-TRAP-0157, 4-(4-(4-(3-(2,4-dihydroxy-5-isopropylphenyl)-5-hydroxy-4H-1,2,4-triazol-4-yl)-2-fluorobenzyl)piperazine-1-carbonyl)benzyl (2-(2,6-dioxopiperidin-3-yl)-1-oxoisoindolin-4-yl)carbamate]	–

Continued, compound first:

SMILES	% Remaining (1 h) ([2]; 10 µM)	also measured
CC(=O)O[C@@]12CO[C@@H]1C[C@H](O)[C@@]1(C)C(=O)[C@H](O)C3=C(C)[C@@H](OC(=O)[C@H](OC(=O)CCC(=O)N4CCC(N5CCC(CCn6ccc7cc(-n8c(O)nnc8-c8cc(C(C)C)c(O)cc8O)ccc76)CC5)CC4)[C@@H](NC(=O)OC(C)(C)C)c4ccccc4)C[C@@](O)([C@@H](OC(=O)c4ccccc4)[C@H]21)C3(C)C [SDC-TRAP-0426]	–	concentration at 6 h ([1]; female, SCID, mouse, in vivo, of analyte at 6 h, read-out: Plasma Conc.): 31.1 nM; concentration at 24 h ([1]; female, SCID, mouse, in vivo, of analyte at 24 h, read-out: Plasma Conc.): 11.1 nM; Tumor Conc. ([1]; of analyte at 6 h): 0.375 nmol/g of tissue; Tumor Conc. ([1]; of analyte at 24 h): 0.256 nmol/g of tissue; Plasma Conc. ([1]; of analyte at 48 h): BQL; Tumor Conc. ([1]; of analyte at 48 h): 0.337 nmol/g of tissue
CC(C)c1cc(-c2nnc(O)n2-c2ccc3c(ccn3CCCC3CCN(C(=O)c4ncn5c(=O)n(C)nnc45)CC3)c2)c(O)cc1O [SDC-TRAP-0345, 8-(4-(3-(5-(3-(2,4-dihydroxy-5-isopropylphenyl)-5-hydroxy-4H-1,2,4-triazol-4-yl)-1H-indol-1-yl)propyl)piperidine-1-carbonyl)-3-methylimidazo[5,1-d][1,2,3,5]tetrazin-4(3H)-one]	63.8%	–
COc1cc(O)c(-c2nnc(C(=O)NC(C)C)n2-c2ccc(CN3CCC(C(=O)Nc4cccc5c4CN(C4CCC(=O)NC4=O)C5=O)CC3)cc2)cc1C(C)C (centres unmarked) [SDC-TRAP-0115, N-(2-(2,6-dioxopiperidin-3-yl)-1-oxoisoindolin-4-yl)-1-(4-(3-(2-hydroxy-5-isopropyl-4-methoxyphenyl)-5-(isopropylcarbamoyl)-4H-1,2,4-triazol-4-yl)benzyl)piperidine-4-carboxamide]	85.9%	–
CCNC(=O)c1nnc(-c2cc(C(C)C)c(O)cc2O)n1-c1ccc(C(=O)N(C)CC(=O)Nc2cccc3c2CN(C2CCC(=O)NC2=O)C3=O)cc1 (centres unmarked) [SDC-TRAP-0147, 5-(2,4-dihydroxy-5-isopropylphenyl)-4-(4-((2-((2-(2,6-dioxopiperidin-3-yl)-1-oxoisoindolin-4-yl)amino)-2-oxoethyl)(methyl)carbamoyl)phenyl)-N-ethyl-4H-1,2,4-triazole-3-carboxamide]	98.1%	–
CCc1c2c(nc3ccc(O)cc13)-c1cc3c(c(=O)n1C2)COC(=O)C3(CC)OC(=O)N(C)CCCCN1CCN(Cc2ccc(-n3c(O)nnc3-c3cc(C(C)C)c(O)cc3O)cc2)CC1 (centres unmarked) [SDC-TRAP-0055, 4,11-diethyl-9-hydroxy-3,14-dioxo-3,4,12,14-tetrahydro-1H-pyrano[3′,4′:6,7]indolizino[1,2-b]quinolin-4-yl (4-(4-(4-(3-(2,4-dihydroxy-5-isopropylphenyl)-5-hydroxy-4H-1,2,4-triazol-4-yl)benzyl)piperazin-1-yl)butyl)(methyl)carbamate]	103%	% Remaining (1 h, 37° C.) ([2]; 10 µM): 103%
CCNC(=O)c1nnc(-c2cc(C(C)C)c(O)cc2O)n1-c1ccc(CN2CCC(C(=O)N3CCC[C@H]3C(=O)Nc3cccc4c3CN(C3CCC(=O)NC3=O)C4=O)CC2)cc1 (stereo partly drawn) [SDC-TRAP-0164, 5-(2,4-dihydroxy-5-isopropylphenyl)-4-(4-((4-((2S)-2-((2-(2,6-dioxopiperidin-3-yl)-1-oxoisoindolin-4-yl)carbamoyl)pyrrolidine-1-carbonyl)piperidin-1-yl)methyl)phenyl)-N-ethyl-4H-1,2,4-triazole-3-carboxamide]	98.0%	–
CCNC(=O)c1nnc(-c2cc(C(C)C)c(O)cc2O)n1-c1ccc(Oc2ccc(C(=O)N3CCC(COC(=O)Nc4cccc5c4CN(C4CCC(=O)NC4=O)C5=O)CC3)cc2)cc1 (centres unmarked) [SDC-TRAP-0125, (1-(4-(4-(3-(2,4-Dihydroxy-5-isopropylphenyl)-5-(ethylcarbamoyl)-4H-1,2,4-triazol-4-yl)phenoxy)benzoyl)piperidin-4-yl)methyl (2-(2,6-dioxopiperidin-3-yl)-1-oxoisoindolin-4-yl)carbamate]	99.4%	–
CCNC(=O)c1nnc(-c2cc(C(C)C)c(O)cc2O)n1-c1ccc2c(c1)CN(C(=O)c1ccc(S(=O)(=O)Oc3ccc4nc5c(c(CC)c4c3)Cn3c-5cc4c(c3=O)COC(=O)C4(O)CC)cc1)C2 (centres unmarked) [SDC-TRAP-0393, 4,11-diethyl-4-hydroxy-3,14-dioxo-3,4,12,14-tetrahydro-1H-pyrano[3′,4′:6,7]indolizino[1,2-b]quinolin-9-yl 4-(5-(3-(2,4-dihydroxy-5-isopropylphenyl)-5-(ethylcarbamoyl)-4H-1,2,4-triazol-4-yl)isoindoline-2-carbonyl)benzenesulfonate]	47.8%	–
CCNC(=O)c1nnc(-c2cc(C(C)C)c(O)cc2O)n1-c1ccc(Oc2ccc(C(=O)NC(Cc3ccccc3)C(=O)Nc3cc(-c4cnoc4-c4cc(OC)c(OC)c(OC)c4)ccc3OC)cc2)cc1 (centres unmarked) [SDC-TRAP-0158]	92.7%	–
CCNC(=O)c1nnc(-c2cc(C(C)C)c(O)cc2O)n1-c1ccc(CN2CCC(C(=O)N(C)CCCOC(=O)Nc3cccc4c3CN(C3CCC(=O)NC3=O)C4=O)CC2)cc1 (centres unmarked) [SDC-TRAP-0231, 3-(1-(4-(3-(2,4-dihydroxy-5-isopropylphenyl)-5-(ethylcarbamoyl)-4H-1,2,4-triazol-4-yl)benzyl)-N-methylpiperidine-4-carboxamido)propyl (2-(2,6-dioxopiperidin-3-yl)-1-oxoisoindolin-4-yl)carbamate]	–	% Remaining (1 h, 10 μM) ([2]; 10 μM): 98.3%
CCNC(=O)c1nnc(-c2cc(C(C)C)c(O)cc2O)n1-c1ccc(CN2CCC(C(=O)N3CCC(n4cc(-c5cnc(N)c(O[C@H](C)c6c(Cl)ccc(F)c6Cl)c5)cn4)CC3)CC2)cc1 [SDC-TRAP-0134, (R)-4-(4-((4-(4-(4-(6-amino-5-(1-(2,6-dichloro-3-fluorophenyl)ethoxy)pyridin-3-yl)-1H-pyrazol-1-yl)piperidine-1-carbonyl)piperidin-1-yl)methyl)phenyl)-5-(2,4-dihydroxy-5-isopropylphenyl)-N-ethyl-4H-1,2,4-triazole-3-carboxamide]	108%	–
